Measurements from patent US20240197815A1, “METHODS AND COMPOSITIONS FOR IMPROVING VISUAL FUNCTION IN OCULAR DISEASES AND DISORDERS” (ONL Therapeutics, Inc., priority 2021, published 2024).
Where “and” joins values, the source holds several entries; their conditions need not be identical. Equal values may be shown once. Ends that are not written are not given here.

Experiments:
Type in all cases: in vivo, human
[1] = system: patients having macular degeneration characterized by geographic atrophy (GA); experiment: Clinical study in GA patients: best corrected visual acuity (BCVA) after single intravitreal injection; details: all patients receiving 25 ug and 50 ug, compared to baseline BCVA
[2] = system: patients with retinal detachment; experiment: Clinical study in retinal detachment patients: BCVA after single intravitreal injection followed by vitrectomy; details: for summary statistics for all patients, mean (of the BCVA logMAR values of Table 2): all doses 25-200 ug; for BCVA logMAR study eye / BCVA Snellen study eye: individual patients
Method: (§1) The primary objective was to determine the Maximum Tolerated Dose (MTD) of a peptide an amino acid sequence […] and the structure of Formula III (ONL1204) and select doses for further clinical studies. During the study, ocular fluid samples were also collected at the time of study drug injection and at the time of vitrectomy. These samples were used for pharmacokinetic and pharmacodynamic analyses.
(§2) Patients were enrolled in ascending dose groups. […] Safety visits were conducted one day post-injection and as deemed necessary by the examining Investigator (at least 1 visit every 3 days) until Visit 3. At Visit 3 (3+ days post-injection, in accordance with standard of care) patients underwent surgical repair of their retinal detachment with vitrectomy (with or without scleral buckling) and gas or oil tamponade. At the time of surgery, an undiluted vitreous sample was collected for pharmacokinetic and pharmacodynamics analyses, and an aqueous sample was collected for pharmacodynamic analysis. Additional safety visits were targeted for and generally conducted one day post-surgery, 7 days (±3 days) post-surgery, 14 (+4 days) days post-surgery, and Weeks 6, 9, 12 (±7 days each), and Week 24 (+14 days; study exit).
Therefore, a volume of 0.05 or 0.1 mL was injected into the study eye. Patient participation was approximately 24 weeks (6 months): a single injection treatment and 24 weeks of follow-up.

[3] = system: patients with retinal detachment; experiment: Clinical study in retinal detachment patients: safety, adverse event reporting
Method: as §1, §2
Planned determinations of dose limiting toxicity included consideration of the following events: • 1.

ICAM1 = experiment: Change in cytokine level in ocular fluid samples from administration to surgery
Method: as §1, §2

IL18 = experiment: as above
Method: as §1, §2

IL1RA = experiment: as above
Method: as §1, §2

MCP1 = experiment: as above
Method: as §1, §2

[4] = 8 patients, 25 ug and 50 ug cohorts
[5] = dose 25 ug (Table 1), individual patients
[6] = dose 50 ug (Table 1), individual patients
[7] = dose 100 ug (Table 1), individual patients
[8] = dose 200 ug (Table 1), individual patient

HHIYLGAVNYIY-NH2 [ONL1204]
visual outcomes (e.g., visual acuity) [1]: improvement in visual outcomes | summary statistics for all patients, mean (of the BCVA logMAR values of Table 2) ([2]; Week 6, n 14): 0.65 | summary statistics for all patients, mean (of the BCVA logMAR values of Table 2) ([2]; Week 9, n 13): 0.78 | summary statistics for all patients, mean (of the BCVA logMAR values of Table 2) ([2]; Week 24, n 13): 0.56 | visual outcomes ([2]; all patients receiving ONL1204, also with greater than 10 days of central vision loss, 3 to 7 days from administration to surgery, range of detachment heights and extents): improved visual outcomes were observed for all patients | visual outcomes (e.g., visual acuity) ([2]; retinal detachment, all patients receiving 25 ug and 50 ug, intravitreal injection then surgery): improvement in visual outcomes | BCVA logMAR study eye ([2]; week 6, dose 25 ug (Table 1)): 0.34 logMAR and 0.18 logMAR and 0.82 logMAR (2×) | BCVA Snellen study eye ([2]; week 6, dose 25 ug): 20/40 and 20/32 and 20/125 (2×) | BCVA logMAR study eye ([2]; week 6, dose 50 ug (Table 1)): 0.46 logMAR and 0.38 logMAR (2×) and 0.52 logMAR | BCVA Snellen study eye ([2]; week 6, dose 50 ug): 20/50 (2×) and 20/80 | BCVA logMAR study eye ([2]; week 6, dose 100 ug (Table 1)): 0.8 logMAR and 0.7 logMAR and 1 logMAR and 1.6 logMAR | BCVA Snellen study eye ([2]; week 6, dose 100 ug): 20/125 and 20/100 and 20/200 and 20/800 | BCVA logMAR study eye ([2]; week 6, dose 200 ug (Table 1)): 0.4 logMAR and 0.7 logMAR | BCVA Snellen study eye ([2]; week 6, dose 200 ug): 20/50 and 20/100 | BCVA logMAR study eye ([2]; week 9, dose 25 ug (Table 1)): 0.14 logMAR and 0.12 logMAR and 0.64 logMAR and 0.78 logMAR | BCVA Snellen study eye ([2]; week 9, dose 25 ug): 20/25 (2×) and 20/100 and 20/125 | BCVA logMAR study eye ([2]; week 9, dose 50 ug (Table 1)): 0.6 logMAR and 0.56 logMAR and 0.34 logMAR | BCVA Snellen study eye ([2]; week 9, dose 50 ug): 20/80 (2×) and 20/50 | BCVA Snellen study eye ([2]; week 9, dose 100 ug, HM = hand motion): 20/200 and 20/80 and 20/400 | BCVA logMAR study eye ([2]; week 9, dose 200 ug (Table 1)): 0.36 logMAR and 0.6 logMAR | BCVA Snellen study eye ([2]; week 9, dose 200 ug): 20/40 and 20/80 | BCVA logMAR study eye ([2]; week 24, dose 25 ug (Table 1)): 0.5 logMAR and 0.2 logMAR and 0.68 logMAR and 0.7 logMAR | BCVA Snellen study eye ([2]; week 24, dose 25 ug): 20/60 and 20/32 and 20/100 (2×) | BCVA logMAR study eye ([2]; week 24, dose 50 ug (Table 1)): 0.76 logMAR and 0.2 logMAR and 0.64 logMAR and 0.34 logMAR | BCVA Snellen study eye ([2]; week 24, dose 50 ug): 20/125 and 20/32 and 20/80 and 20/50 | BCVA logMAR study eye ([2]; week 24, dose 100 ug (Table 1)): 0.5 logMAR and 0.7 logMAR and 1.3 logMAR and 0.6 logMAR | BCVA Snellen study eye ([2]; week 24, dose 100 ug): 20/63 and 20/100 and 20/400 and 20/80 | BCVA logMAR study eye ([2]; week 24, dose 200 ug (Table 1)): 0.2 logMAR | BCVA Snellen study eye ([2]; week 24, dose 200 ug): 20/32 | patients experiencing adverse events ([3]; 4 patients receiving 25 ug and 4 patients receiving 50 ug): 7 out of 8 | severity and relatedness of adverse events [3, 4]: Most were mild, and study procedure or surgery related | total adverse events [3, 4]: 20 adverse events | change in ICAM level from ONL1204 administration to surgery, mean (ICAM1; all patients of Table 7): mean decrease | ICAM1 Percent Change (%) from time of administering ONL1204 to surgery (ICAM1; [5]): −82.4% and −42.7% and −86.2% | ICAM1 Percent Change (%) from time of administering ONL1204 to surgery (ICAM1; [6]): −100% and 0% and 64.0% | ICAM1 Percent Change (%) from time of administering ONL1204 to surgery (ICAM1; [7]): −43.9% and 24.9% and 22.7% | ICAM1 Percent Change (%) from time of administering ONL1204 to surgery (ICAM1; [8]): 0% | change in IL18 level from ONL1204 administration to surgery, mean (IL18; all patients of Table 7): mean decrease | IL18 Percent Change (%) from time of administering ONL1204 to surgery (IL18; [5]): −60.5% and −22.5% and −50.8% | IL18 Percent Change (%) from time of administering ONL1204 to surgery (IL18; [6]): −100% and 0% (2×) | IL18 Percent Change (%) from time of administering ONL1204 to surgery (IL18; [7]): −33.7% and 0% and 66.0% | IL18 Percent Change (%) from time of administering ONL1204 to surgery (IL18; [8]): 0% | change in IL1RA level from ONL1204 administration to surgery, mean (IL1RA; all patients of Table 7): mean decrease | IL1RA Percent Change (%) from time of administering ONL1204 to surgery (IL1RA; [5]): −51.0% and −57.4% and −99.3% | IL1RA Percent Change (%) from time of administering ONL1204 to surgery (IL1RA; [6]): −94.4% and −88.3% and −60.0% | IL1RA Percent Change (%) from time of administering ONL1204 to surgery (IL1RA; [7]): 8.5% and −46.1% and −65.2% | IL1RA Percent Change (%) from time of administering ONL1204 to surgery (IL1RA; [8]): −26.3% | change in MCP1 level from ONL1204 administration to surgery, mean (MCP1; all patients of Table 7): mean decrease | MCP1 Percent Change (%) from time of administering ONL1204 to surgery (MCP1; [5]): −41.4% and −6.02% and −35.9% | MCP1 Percent Change (%) from time of administering ONL1204 to surgery (MCP1; [6]): −48.4% and 11.6% and −3.12% | MCP1 Percent Change (%) from time of administering ONL1204 to surgery (MCP1; [7]): −9.5% and 78.5% and 500% | MCP1 Percent Change (%) from time of administering ONL1204 to surgery (MCP1; [8]): −2.4%
